Laboratory results taken from the Kinase Knowledgebase extract (Sharma et al. 2016).

Key:
[1] = biological target: EGFR (Hamster) (UniProt P00533); conditions: for inhibition: er22, dose or concentration not given here; for IC50: er22
[2] = biological target: EGFR (UniProt P00533); conditions: for inhibition: concentration not given here
Sequence of EGFR (P00533 whole entry, looked up): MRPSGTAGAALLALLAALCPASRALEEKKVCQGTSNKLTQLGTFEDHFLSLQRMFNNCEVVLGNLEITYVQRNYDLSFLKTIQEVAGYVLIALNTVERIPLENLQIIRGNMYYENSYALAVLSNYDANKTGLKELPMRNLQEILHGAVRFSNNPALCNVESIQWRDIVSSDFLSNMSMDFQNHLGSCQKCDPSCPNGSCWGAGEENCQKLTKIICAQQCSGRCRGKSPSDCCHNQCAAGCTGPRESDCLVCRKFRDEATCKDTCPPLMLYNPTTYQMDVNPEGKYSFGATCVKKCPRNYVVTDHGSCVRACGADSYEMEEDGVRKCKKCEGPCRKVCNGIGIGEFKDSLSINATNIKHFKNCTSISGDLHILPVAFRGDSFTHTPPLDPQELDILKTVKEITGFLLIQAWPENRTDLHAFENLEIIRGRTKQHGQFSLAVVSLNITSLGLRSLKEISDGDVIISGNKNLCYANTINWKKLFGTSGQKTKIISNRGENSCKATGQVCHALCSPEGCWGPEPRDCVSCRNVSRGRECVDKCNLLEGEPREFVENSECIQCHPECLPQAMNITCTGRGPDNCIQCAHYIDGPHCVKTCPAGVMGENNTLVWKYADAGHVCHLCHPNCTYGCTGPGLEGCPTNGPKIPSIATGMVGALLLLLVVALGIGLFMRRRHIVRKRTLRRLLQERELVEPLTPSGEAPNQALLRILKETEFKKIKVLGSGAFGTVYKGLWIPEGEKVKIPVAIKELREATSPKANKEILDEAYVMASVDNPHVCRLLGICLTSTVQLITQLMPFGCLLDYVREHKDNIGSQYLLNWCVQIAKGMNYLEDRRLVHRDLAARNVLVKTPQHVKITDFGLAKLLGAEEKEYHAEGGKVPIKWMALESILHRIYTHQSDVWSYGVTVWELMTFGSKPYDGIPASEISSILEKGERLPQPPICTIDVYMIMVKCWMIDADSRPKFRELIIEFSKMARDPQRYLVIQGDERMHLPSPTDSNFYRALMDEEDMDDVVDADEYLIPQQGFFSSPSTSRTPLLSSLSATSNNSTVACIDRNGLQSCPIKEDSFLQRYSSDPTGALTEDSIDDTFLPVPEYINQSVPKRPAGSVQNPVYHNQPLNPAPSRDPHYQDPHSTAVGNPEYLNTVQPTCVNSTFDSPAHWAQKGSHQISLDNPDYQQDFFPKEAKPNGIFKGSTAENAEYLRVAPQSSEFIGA

Sequence of EGFR (Hamster) (P00533 whole entry, looked up): as above

Structure (SMILES)	inhibition [1]	inhibition [2]	IC50 [1]	further results
CCCCCCCCCCCCCCCCOC(=O)c1cc(NCc2cc(O)ccc2O)ccc1O	0%	0%	–	–
CC(C)(C)CCOC(=O)c1cc(N=Cc2cc(O)ccc2O)ccc1O	0%	–	> 2 µM	–
O=C(Cc1cc(N=Cc2cc(O)ccc2O)ccc1O)NOCc1ccccc1	61%	–	–	–
CONC(=O)c1cc(N=Cc2cc(O)ccc2O)ccc1O	–	–	> 100 µM	–
O=C(Oc1ccc2ccccc2c1)c1cc(NCc2cc(O)ccc2O)ccc1O	–	–	–	IC100 [2]: 0.09 µM
O=C(OCCC1[C@H]2C[C@@H]3C[C@@H](C[C@H]1C3)C2)c1cc(NCc2cc(O)ccc2O)ccc1O (some centres not stated)	–	0%	1.25 µM	IC50 [2]: > 5 µM
CC(C)(C)ONC(=O)c1cc(N=Cc2cc(O)ccc2O)ccc1O	0%	–	> 20 µM	–
CC(C)(C)OC(=O)c1cc(N=Cc2cc(O)ccc2O)ccc1O	–	–	> 10 µM	–
CC(CCOC(=O)c1cc(NCc2cc(O)ccc2O)ccc1O)CC(C)(C)C (configuration not stated)	–	0%	–	–
O=C(Oc1cccc(O)c1)c1cc(NCc2cc(O)ccc2O)ccc1O	0%	–	> 5 µM	–
CC(COC(=O)c1cc(N=Cc2cc(O)ccc2O)ccc1O)CC(C)(C)C (configuration not stated)	–	0%	–	–
